Measurements reported in ChEMBL document CHEMBL1124854, “Porphyrin dimers as photosensitizers in photodynamic therapy” (1990).

Tests used:
Type in all cases: functional
Mus musculus [1] = assay: In vivo photosensitizing activity against subcutaneously implanted SMT-F tumor in DBA/2 mice at the dose of 4.2mg/Kg, day 1-2
Mus musculus [2] = assay: In vivo photosensitizing activity against subcutaneously implanted SMT-F tumor in DBA/2 mice at the dose of 2.1mg/Kg, day 1-2
Mus musculus [3] = assay: In vivo photosensitizing activity against subcutaneously implanted SMT-F tumor in DBA/2 mice at the dose of 2.1mg/Kg, day 7

| SMILES | Tumor response (Mus musculus [1]) [%] | Tumor response (Mus musculus [2]) [%] | Tumor response (Mus musculus [3]) [%] |
| --- | --- | --- | --- |
| CNc1cc2[nH]c(cc3nc(cc4nc(ccc(CCC(=O)OC)c1C)C(CCC(=O)OC)=C4C)C(C)=C3C(C)O)c(C)c2C(C)OC(C)c1c(C)cc2[nH]c(cc3nc(cc4nc(cc(N)c1C)C(C(C)O)=C4C)C(C)=C3CCC(=O)OC)c(CCC(=O)OC)c2C (centres undefined) | 0 |  |  |
| C=CC1=C(C)c2cc3nc(ccc(CCC(=O)OC)c(C)c(NC)cc4[nH]c(cc1n2)c(C)c4C(C)OC(C)c1c(C)cc2[nH]c(cc4nc(cc5nc(cc(N)c1C)C(C(C)O)=C5C)C(C)=C4CCC(=O)OC)c(CCC(=O)OC)c2C)C(CCC(=O)OC)=C3C (centres undefined) |  | 100 | 100 |
| CNc1cc2[nH]c(cc3nc(cc4nc(ccc(CCC(=O)OC)c1C)C(CCC(=O)OC)=C4C)C(C)=C3C(C)O)c(C)c2C(C)OC(=O)CCC1=C(C)c2cc(C)c(C(C)O)c(C)c(N)cc3nc(cc4[nH]c(cc1n2)c(CCC(=O)OC)c4C)C(C)=C3C(C)O (centres undefined) | 0 |  |  |
